According to the supplement of paper PMC4858399:
Where a name gives a salt, the structure may show the parent alone.

Legend:
Conditions in all cases: exposure time 48 h
[1] = tested on: Caenorhabditis elegans N2; assay: AC50 for larval growth inhibition (Hill fit); higher = less potent
Method in brief: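 Synchronised C. elegans N2 L1 larvae (50 per well, 96-well plates) were grown for 48 h at 20°C in K-medium with killed OP50, 1% DMSO and 0.5–200 µM chemical. The COPAS Biosort measured each worm's size as extinction, which was log-transformed and averaged per well. AC50 came from a constrained Hill fit by weighted genetic-algorithm regression on wells with at least 10 worms. Out-of-range values are censored.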

[2] = tested on: Caenorhabditis elegans N2; assay: lowest effective concentration for larval growth inhibition (size below effect threshold); higher = less potent
Method in brief: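 Each well of a 96-well plate received 50 C. elegans N2 L1 larvae, which grew for 48 h at 20°C in K-medium containing killed bacteria, 1% DMSO and the chemical at 0.5, 1, 5, 10, 50, 100 or 200 µM. A Biosort recorded the extinction of every worm as its size, and these readings were log-transformed and averaged per well. The lowest effective concentration is defined as the first dose at which the plate-adjusted mean size falls below the threshold and stays below it at all higher doses; that threshold is 5.665.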

[3] = tested on: Caenorhabditis elegans N2; assay: mean nematode size ln(EXT) after 48 h, plate-adjusted (DMSO control set to 6) (ln(EXT), control-adjusted); higher = larger nematodes / less growth inhibition
Method in brief: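 Each treatment used 4–6 wells of 50 synchronised C. elegans N2 L1 larvae, kept for 48 h at 20°C in K-medium with killed OP50, 1% DMSO and 0.5–200 µM chemical. Debris was excluded by a growth model after the Biosort measured per-worm extinction. Mean size per well came from natural-logged values and was plate-adjusted. That adjustment subtracted the vehicle control mean and then added 6.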

| Compound | AC50 for larval growth inhibition [1] | lowest effective concentration [2] | mean nematode size ln(EXT) (ln) ([3]; 0.5 µM) | mean nematode size ln(EXT) (ln) ([3]; 1 µM) | mean nematode size ln(EXT) (ln) ([3]; 5 µM) | mean nematode size ln(EXT) (ln) ([3]; 10 µM) | mean nematode size ln(EXT) (ln) ([3]; 50 µM) | mean nematode size ln(EXT) (ln) ([3]; 100 µM) | mean nematode size ln(EXT) (ln) ([3]; 200 µM) |
| --- | --- | --- | --- | --- | --- | --- | --- | --- | --- |
| COc1ccc(C(c2ccc(OC)cc2)C(Cl)(Cl)Cl)cc1 [Methoxychlor] | 39 µM | ≤ 0.5 µM | 5.6 | 5.46 | 5.58 | 5.19 | 4.71 | 4.01 | 3.61 |
| COc1cccc(C(=O)NN(C(=O)c2cc(C)cc(C)c2)C(C)(C)C)c1C [Methoxyfenozide] | 195 µM | 200 µM | 6.16 | 6.1 | 6.05 | 5.9 | 6 | 6.01 | 4.43 |
| COC(=O)c1ccccc1N [Methyl 2-aminobenzoate] | > 200 µM | 200 µM | 5.88 | 5.87 | 5.91 | 5.88 | 5.8 | 5.7 | 5.64 |
| CN=C=S [Methyl isothiocyanate] | > 200 µM | 200 µM | 6.14 | 6.37 | 6.06 | 6.02 | 5.96 | 6.02 | 5.06 |
| CCCCCCCCCCCC(=O)OC [Methyl laurate] | > 200 µM | 200 µM | 5.77 | 5.99 | 5.92 | 5.94 | 5.74 | 5.82 | 4.96 |
| CCCCCCCC(=O)OC [Methyl octanoate] | > 200 µM | 200 µM | 5.88 | 5.84 | 5.85 | 5.9 | 5.74 | 5.88 | 5.52 |
| COC(=O)c1ccccc1O [Methyl salicylate] | > 200 µM | 200 µM | 5.89 | 5.86 | 5.82 | 5.75 | 5.81 | 5.78 | 5.26 |
| N#CSCSC#N [Methylene bis(thiocyanate)] | 17.5 µM | ≤ 0.5 µM | 5.41 | 5.47 | 5.22 | 5.16 | 3.74 | 3.85 | 3.4 |
| CCc1cccc(C)c1N(C(=O)CCl)C(C)COC (centres undefined) [Metolachlor] | > 200 µM | 50 µM | 5.64 | 5.7 | 5.74 | 5.81 | 5.63 | 5.63 | 5.64 |
| COC(=O)C=C(C)OP(=O)(OC)OC [Mevinphos] | 156 µM | 200 µM | 6.16 | 6.21 | 6.22 | 6.29 | 4.99 | 5.74 | 3.88 |
| CN(C)c1ccc(C(=O)c2ccc(N(C)C)cc2)cc1 [Michler's ketone] | > 200 µM | 200 µM | 5.78 | 5.87 | 5.83 | 5.78 | 5.82 | 5.88 | 5.58 |
| ClC1(Cl)C2(Cl)C3(Cl)C4(Cl)C(Cl)(Cl)C5(Cl)C3(Cl)C1(Cl)C5(Cl)C24Cl (centres undefined) [Mirex] | > 200 µM | 50 µM | 5.34 | 5.5 | 5.57 | 6.06 | 5.56 | 5.51 | 5.59 |
| CCSC(=O)N1CCCCCC1 [Molinate] | > 200 µM | ≤ 0.5 µM | 5.42 | 5.42 | 5.29 | 5.63 | 5.44 | 5.62 | 5.21 |
| CN(C)C(=O)Nc1ccc(Cl)cc1 [Monuron] | > 200 µM | 200 µM | 5.99 | 6 | 5.94 | 5.98 | 5.86 | 5.79 | 5.34 |
| CCCCC(C#N)(Cn1cncn1)c1ccc(Cl)cc1 (centres undefined) [Myclobutanil] | > 200 µM | 100 µM | 5.83 | 5.77 | 5.8 | 5.86 | 5.68 | 5.55 | 4.8 |
| CCN(CC)c1ccccc1 [N,N-Diethyl aniline] | 186 µM | 200 µM | 6.08 | 6.09 | 5.9 | 6 | 5.98 | 6.05 | 4.83 |
| CCCCCCCCN(C)C [N,N-Dimethyloctylamine] | > 200 µM | 200 µM | 5.85 | 5.83 | 5.81 | 5.79 | 5.85 | 5.88 | 5.65 |
| CCCCCCCCCCCCN1CCCC1=O [N-Lauryl-2-pyrrolidone] | 16.1 µM | ≤ 0.5 µM | 5.42 | 5.51 | 5.45 | 4.97 | 3.49 | 3.53 | 3.03 |
| CCCCCCCCN(C)CCCCCCCC [N-Methyldioctylamine] | 182 µM | 200 µM | 5.78 | 5.86 | 5.87 | 5.75 | 5.78 | 5.83 | 4.13 |
| CCN(CC)N=O [N-Nitrosodiethylamine] | > 200 µM | 200 µM | 5.96 | 5.9 | 5.89 | 5.87 | 5.77 | 5.75 | 5.66 |
| O=NN(c1ccccc1)c1ccccc1 [N-Nitrosodiphenylamine] | > 200 µM | 200 µM | 6.12 | 6.03 | 6.08 | 6.08 | 6 | 5.87 | 5.26 |
| Nc1ccc(Nc2ccccc2)cc1 [N-Phenyl-1,4-benzenediamine] | 71.8 µM | 50 µM | 5.84 | 5.84 | 5.76 | 5.72 | 5.43 | 5.15 | 5.25 |
| COc1ccc(C(=O)Nc2nc3ccccc3c(NCc3ccccc3)c2C#N)cc1 [N-[4-(benzylamino)-3-cyanoquinolin-2-yl]-4-methoxybenzamide] | > 200 µM | 1 µM | 5.68 | 5.65 | 5.49 | 5.41 | 5.18 | 4.88 | 4.46 |

| Compound | AC50 for larval growth inhibition [1] | lowest effective concentration [2] | mean nematode size ln(EXT) (ln) ([3]; 0.5 µM) | mean nematode size ln(EXT) (ln) ([3]; 1 µM) | mean nematode size ln(EXT) (ln) ([3]; 5 µM) | mean nematode size ln(EXT) (ln) ([3]; 10 µM) | mean nematode size ln(EXT) (ln) ([3]; 50 µM) | mean nematode size ln(EXT) (ln) ([3]; 100 µM) | mean nematode size ln(EXT) (ln) ([3]; 200 µM) |
| --- | --- | --- | --- | --- | --- | --- | --- | --- | --- |
| COP(=O)(OC)OC(Br)C(Cl)(Cl)Br (centres undefined) [Naled] | 95.8 µM | 5 µM | 5.83 | 5.69 | 5.51 | 5.53 | 4.87 | 4.66 | 3.88 |
| c1ccc2ccccc2c1 [Naphthalene] | > 200 µM | 200 µM | 5.99 | 5.93 | 5.96 | 5.78 | 5.87 | 5.92 | 4.83 |
| CCN(CC)C(=O)C(C)Oc1cccc2ccccc12 (centres undefined) [Napropamide] | 97.3 µM | 100 µM | 5.97 | 5.95 | 5.93 | 6 | 6.01 | 5.62 | 5.43 |
| COc1ccc(S(=O)(=O)N2C(=O)[C@@](c3ccccc3OC)(N3C[C@H](O)C[C@H]3C(=O)N(C)C)c3cc(Cl)ccc32)c(OC)c1 [Nelivaptan] | > 200 µM | 100 µM | 5.95 | 5.76 | 5.72 | 5.83 | 5.7 | 5.48 | 5.44 |
| O=C(Nc1ccc([N+](=O)[O-])cc1Cl)c1cc(Cl)ccc1O [Niclosamide] | 98.6 µM | 200 µM | 5.85 | 5.9 | 5.86 | 6.1 | 6.02 | 5.74 | 5.59 |
| CN1CCC[C@H]1c1cccnc1 [Nicotine] | > 200 µM | 100 µM | 5.88 | 5.83 | 5.83 | 5.87 | 5.87 | 5.38 | 5.56 |
| Clc1cccc(C(Cl)(Cl)Cl)n1 [Nitrapyrin] | 108 µM | 100 µM | 5.36 | 5.48 | 5.3 | 5.47 | 5.92 | 5.54 | 4.05 |
| O=C(O)CN(CC(=O)O)CC(=O)O [Nitrilotriacetic acid] | > 200 µM | 200 µM | 5.78 | 5.83 | 5.87 | 5.88 | 5.91 | 5.88 | 5.21 |
| O=[N+]([O-])c1ccccc1 [Nitrobenzene] | 193 µM | 200 µM | 6.01 | 5.97 | 6.01 | 6.12 | 6.23 | 6.14 | 5.65 |
| O=C1CN(/N=C/c2ccc([N+](=O)[O-])o2)C(=O)N1 [Nitrofurantoin] | > 200 µM | 200 µM | 5.9 | 5.88 | 5.88 | 5.88 | 5.81 | 5.84 | 5.46 |
| CNc1cnn(-c2cccc(C(F)(F)F)c2)c(=O)c1Cl [Norflurazon] | 104 µM | 200 µM | 5.99 | 5.96 | 6.11 | 6.19 | 6.05 | 5.79 | 5.15 |
| O=C(NC(=O)c1c(F)cccc1F)Nc1ccc(OC(F)(F)C(F)OC(F)(F)F)c(Cl)c1 (centres undefined) [Novaluron] | > 200 µM | 50 µM | 5.83 | 5.74 | 5.85 | 5.88 | 5.61 | 5.12 | 4.56 |
| CCOP(=S)(Oc1ccc([N+](=O)[O-])cc1)c1ccccc1 (centres undefined) [O-Ethyl O-(p-nitrophenyl) phenylphosphonothioate] | 6.09 µM | ≤ 0.5 µM | 5.28 | 5.07 | 4.53 | 4.38 | 4.13 | 4.01 | 3.39 |
| C[Si]1(C)O[Si](C)(C)O[Si](C)(C)O[Si](C)(C)O1 [Octamethylcyclotetrasiloxane] | 183 µM | 200 µM | 5.99 | 5.98 | 5.96 | 5.97 | 5.98 | 6.05 | 4.48 |
| CCCCCCCCn1sccc1=O [Octhilinone] | 34.9 µM | ≤ 0.5 µM | 5.47 | 5.54 | 5.56 | 5.58 | 4.2 | 3.68 | 3.36 |
| CC(C)(C)CC(C)(C)c1ccc(O)c(-n2nc3ccccc3n2)c1 [Octrizole] | > 200 µM | ≤ 0.5 µM | 5.46 | 5.58 | 5.57 | 5.58 | 5.58 | 5.55 | 5.44 |
| CCCCCCCCOC(=O)c1cc(O)c(O)c(O)c1 [Octyl gallate] | 55.1 µM | 50 µM | 5.79 | 5.87 | 5.84 | 5.88 | 4.63 | 4.47 | 3.77 |
| CCCN(CCC)c1c([N+](=O)[O-])cc(S(N)(=O)=O)cc1[N+](=O)[O-] [Oryzalin] | > 200 µM | 50 µM | 5.9 | 5.91 | 5.84 | 5.72 | 5.27 | 4.95 | 4.56 |
| CC(C)Oc1cc(-n2nc(C(C)(C)C)oc2=O)c(Cl)cc1Cl [Oxadiazon] | 120 µM | 200 µM | 6.14 | 6.23 | 6.09 | 5.95 | 6.05 | 5.95 | 3.29 |
| CCOc1cc(Oc2ccc(C(F)(F)F)cc2Cl)ccc1[N+](=O)[O-] [Oxyfluorfen] | 3.64 µM | ≤ 0.5 µM | 5.57 | 5.42 | 4.64 | 3.99 | 3.63 | 3.63 | 3.46 |
| CN(C)[C@@H]1C(=O)C(C(N)=O)=C(O)[C@@]2(O)C(=O)C3=C(O)c4c(O)cccc4[C@@](C)(O)[C@H]3[C@H](O)[C@@H]12 [Oxytetracycline dihydrate] | > 200 µM | 200 µM | 5.86 | 6.02 | 6.01 | 5.95 | 5.87 | 5.83 | 5.46 |
| CN(C)[C@@H]1C(=O)C(C(N)=O)=C(O)[C@@]2(O)C(=O)C3=C(O)c4c(O)cccc4[C@@](C)(O)[C@H]3[C@H](O)[C@@H]12 [Oxytetracycline hydrochloride] | 81.4 µM | 100 µM | 5.99 | 5.96 | 5.95 | 6.01 | 5.9 | 5.64 | 5.48 |
| COP(=S)(OC)Oc1ccc([N+](=O)[O-])cc1 [Parathion-methyl] | 15.1 µM | 5 µM | 5.71 | 5.8 | 5.52 | 5.25 | 3.72 | 3.66 | 3.7 |
